Results from patent publication US12540141B2, “Spiropyrrolidine derived antiviral agents” (priority 2020, dated 2026).

Target: SARS-CoV-2 3CL-protease (Severe acute respiratory syndrome coronavirus 2, UniProt P0DTD1)
Assay: SARS-CoV-2 3C-Like (3CL) Protease Fluorescence Assay (FRET)
Assay type: biochemical
Conditions: SARS-CoV-2 3CL-protease 10 nM, 30 min preincubation at RT, substrate 40 μM

CC(C)C[C@@H](C(=O)N1C[C@]2(C[C@H]1C#N)C(=O)Nc1ccccc12)N(C)C(=O)c1cccc(-c2ccc(C#N)cc2)c1 [Example 265]
IC50: 100 to 1000 nM

CC(C)C[C@@H](C(=O)N1C[C@]2(C[C@H]1C#N)C(=O)Nc1ccccc12)N(C)C(=O)c1cccc(-c2cccc(Cl)c2)c1 [Example 266]
IC50: 100 to 1000 nM

CC(C)C[C@@H](C(=O)N1C[C@]2(C[C@H]1C#N)C(=O)Nc1ccccc12)N(C)C(=O)c1cn(-c2ccccn2)nn1 [Example 267]
IC50: < 100 nM

CC(C)C[C@@H](C(=O)N1C[C@]2(C[C@H]1C#N)C(=O)Nc1ccccc12)N(C)C(=O)c1cnc2c(C(F)(F)F)cccc2c1 [Example 268]
IC50: 100 to 1000 nM

CC(C)C[C@@H](C(=O)N1C[C@]2(C[C@H]1C#N)C(=O)Nc1ccccc12)N(C)C(=O)c1nc2c(F)cc(F)cc2[nH]1 [Example 269]
IC50: < 100 nM

CC(C)C[C@@H](C(=O)N1C[C@]2(C[C@H]1C#N)C(=O)Nc1ccccc12)N(C)C(=O)c1nc2c(F)cc(F)c(F)c2[nH]1 [Example 270]
IC50: < 100 nM

CC(C)C[C@@H](C(=O)N1C[C@]2(C[C@H]1C#N)C(=O)Nc1ccccc12)N(C)C(=O)c1ccc2c(Cl)ccnc2c1 [Example 271]
IC50: 100 to 1000 nM

CC(C)C[C@@H](C(=O)N1C[C@]2(C[C@H]1C#N)C(=O)Nc1ccccc12)N(C)C(=O)c1ccc(F)c(-c2ccccc2)c1 [Example 272]
IC50: 100 to 1000 nM

CC(C)C[C@@H](C(=O)N1C[C@]2(C[C@H]1C#N)C(=O)Nc1ccccc12)N(C)C(=O)c1nc2c(F)c(F)c(F)cc2[nH]1 [Example 273]
IC50: 100 to 1000 nM

CC(C)C[C@@H](C(=O)N1C[C@]2(C[C@H]1C#N)C(=O)Nc1ccccc12)N(C)C(=O)c1ccc2nccc(Br)c2c1 [Example 274]
IC50: < 100 nM

CC(C)C[C@@H](C(=O)N1C[C@]2(C[C@H]1C#N)C(=O)Nc1ccccc12)N(C)C(=O)c1cc2cccnc2cc1F [Example 275]
IC50: < 100 nM

CC(C)C[C@@H](C(=O)N1C[C@]2(C[C@H]1C#N)C(=O)Nc1ccccc12)N(C)C(=O)c1ccc2c(=O)[nH]ccc2c1 [Example 276]
IC50: < 100 nM

CC(C)C[C@@H](C(=O)N1C[C@]2(C[C@H]1C#N)C(=O)Nc1ccccc12)N(C)C(=O)c1ccc(-c2ccccc2)cc1 [Example 277]
IC50: 100 to 1000 nM

CC(C)C[C@@H](C(=O)N1C[C@]2(C[C@H]1C#N)C(=O)Nc1ccccc12)N(C)C(=O)c1cccc(-c2ccccc2C#N)c1 [Example 278]
IC50: < 100 nM

CC(C)C[C@@H](C(=O)N1C[C@]2(C[C@H]1C#N)C(=O)Nc1ccccc12)N(C)C(=O)c1cccc(-c2cccc(C#N)c2)c1 [Example 279]
IC50: 100 to 1000 nM

CC(C)C[C@@H](C(=O)N1C[C@]2(C[C@H]1C#N)C(=O)Nc1ccccc12)N(C)C(=O)c1nc2ccccc2n1C [Example 282]
IC50: 100 to 1000 nM

CC(C)C[C@@H](C(=O)N1C[C@]2(C[C@H]1C#N)C(=O)Nc1ccccc12)N(C)C(=O)c1cn(-c2ccc(F)cc2)nn1 [Example 283]
IC50: < 100 nM

CC(C)C[C@@H](C(=O)N1C[C@]2(C[C@H]1C#N)C(=O)Nc1ccccc12)N(C)C(=O)c1cn(-c2ccc(Cl)cc2)nn1 [Example 284]
IC50: < 100 nM

CC(C)C[C@@H](C(=O)N1C[C@]2(C[C@H]1C#N)C(=O)Nc1ccccc12)N(C)C(=O)c1ccc2cccnc2c1O [Example 285]
IC50: 100 to 1000 nM

CC(C)C[C@@H](C(=O)N1C[C@]2(C[C@H]1C#N)C(=O)Nc1ccccc12)N(C)C(=O)c1cn(-c2cccc(Cl)c2)nn1 [Example 286]
IC50: < 100 nM

CC(C)C[C@@H](C(=O)N1C[C@]2(C[C@H]1C#N)C(=O)Nc1ccccc12)N(C)C(=O)c1n[nH]c(-c2ccccc2)n1 [Example 288]
IC50: 100 to 1000 nM

CC(C)C[C@@H](C(=O)N1C[C@]2(C[C@H]1C#N)C(=O)Nc1ccccc12)N(C)C(=O)C[C@@H](Cc1cc(F)c(F)cc1F)NC(=O)OC(C)(C)C [Example 289]
IC50: < 100 nM

CC(C)C[C@@H](C(=O)N1C[C@]2(C[C@H]1C#N)C(=O)Nc1ccccc12)N(C)C(=O)c1ccc2c(F)cc(F)cc2n1 [Example 290]
IC50: 100 to 1000 nM

CC(C)C[C@@H](C(=O)N1C[C@]2(C[C@H]1C#N)C(=O)Nc1ccccc12)N(C)C(=O)C[C@H](Cc1cc(F)c(F)cc1F)NC(=O)OC(C)(C)C [Example 291]
IC50: < 100 nM

COc1cc(F)c2cc(C(=O)N(C)[C@@H](CC(C)C)C(=O)N3C[C@]4(C[C@H]3C#N)C(=O)Nc3ccccc34)[nH]c2c1F [Example 292]
IC50: < 100 nM

CC(C)C[C@@H](C(=O)N1C[C@]2(C[C@H]1C#N)C(=O)Nc1ccccc12)N(C)C(=O)c1cccc2ccncc12 [Example 293]
IC50: < 100 nM

CC(C)C[C@@H](C(=O)N1C[C@]2(C[C@H]1C#N)C(=O)Nc1ccccc12)N(C)C(=O)c1ccnc2ccccc12 [Example 294]
IC50: < 100 nM

CC(C)C[C@@H](C(=O)N1C[C@]2(C[C@H]1C#N)C(=O)Nc1ccccc12)N(C)C(=O)c1cncc2ccccc12 [Example 295]
IC50: < 100 nM

CC(C)C[C@@H](C(=O)N1C[C@]2(C[C@H]1C#N)C(=O)Nc1ccccc12)N(C)C(=O)c1cccc2cccnc12 [Example 296]
IC50: 100 to 1000 nM

CC(C)C[C@@H](C(=O)N1C[C@]2(C[C@H]1C#N)C(=O)Nc1ccccc12)N(C)C(=O)c1ccc2nccnc2c1 [Example 297]
IC50: 100 to 1000 nM

CC(C)C[C@@H](C(=O)N1C[C@]2(C[C@H]1C#N)C(=O)Nc1ccccc12)N(C)C(=O)c1cnc2ccccc2n1 [Example 298]
IC50: 100 to 1000 nM

CC(C)C[C@@H](C(=O)N1C[C@]2(C[C@H]1C#N)C(=O)Nc1ccccc12)N(C)C(=O)c1c(F)ccc2ccncc12 [Example 299]
IC50: < 100 nM

CC(C)C[C@@H](C(=O)N1C[C@]2(C[C@H]1C#N)C(=O)Nc1ccccc12)N(C)C(=O)c1cnc2cnccc2c1 [Example 301]
IC50: < 100 nM

CC(C)C[C@@H](C(=O)N1C[C@]2(C[C@H]1C#N)C(=O)Nc1ccccc12)N(C)C(=O)c1cnc2cccnc2c1 [Example 302]
IC50: 100 to 1000 nM

CC(C)C[C@@H](C(=O)N1C[C@]2(C[C@H]1C#N)C(=O)Nc1ccccc12)N(C)C(=O)c1ccc2ncccc2n1 [Example 303]
IC50: < 100 nM

CC(C)C[C@@H](C(=O)N1C[C@]2(C[C@H]1C#N)C(=O)Nc1ccccc12)N(C)C(=O)c1cccc2ncc(F)cc12 [Example 304]
IC50: < 100 nM

CC(C)C[C@@H](C(=O)N1C[C@]2(C[C@H]1C#N)C(=O)Nc1ccccc12)N(C)C(=O)c1ccnc2ccc(F)cc12 [Example 305]
IC50: < 100 nM

CC(C)C[C@@H](C(=O)N1C[C@]2(C[C@H]1C#N)C(=O)Nc1ccccc12)N(C)C(=O)c1ccnc2cccc(F)c12 [Example 306]
IC50: < 100 nM

CC(C)C[C@@H](C(=O)N1C[C@]2(C[C@H]1C#N)C(=O)Nc1ccccc12)N(C)C(=O)c1cc(F)c2nn(C)cc2c1 [Example 309]
IC50: < 100 nM

CC(C)C[C@@H](C(=O)N1C[C@]2(C[C@H]1C#N)C(=O)Nc1ccccc12)N(C)C(=O)c1cc(OC2CC2)c2nc(Cl)ccc2c1 [Example 310]
IC50: < 100 nM

CC(C)C[C@@H](C(=O)N1C[C@]2(C[C@H]1C#N)C(=O)Nc1ccccc12)N(C)C(=O)c1cc(F)c2nn(C3CC3)cc2c1 [Example 311]
IC50: 100 to 1000 nM

CC(C)C[C@@H](C(=O)N1C[C@]2(C[C@H]1C#N)C(=O)Nc1ccccc12)N(C)C(=O)c1cc(OC2CC2)c2ncccc2c1 [Example 312]
IC50: < 100 nM

CC(C)C[C@@H](C(=O)N1C[C@]2(C[C@H]1C#N)C(=O)Nc1ccccc12)N(C)C(=O)c1cc(OC2CC2)n2nc(C3CC3)c(C(=O)C(F)(F)F)c2c1 [Example 313]
IC50: 100 to 1000 nM

CC(C)C[C@@H](C(=O)N1C[C@]2(C[C@H]1C#N)C(=O)Nc1ccccc12)N(C)C(=O)c1cc(F)c2nc(C3CC3)c(C(=O)C(F)(F)F)n2c1 [Example 314]
IC50: 100 to 1000 nM

CC(C)C[C@@H](C(=O)N1C[C@]2(C[C@H]1C#N)C(=O)Nc1ccccc12)N(C)C(=O)c1cc(OC2CC2)n2nc(C3CC3)cc2c1 [Example 315]
IC50: < 100 nM

CC(C)C[C@@H](C(=O)N1C[C@]2(C[C@H]1C#N)C(=O)Nc1ccccc12)N(C)C(=O)c1cc(Cl)c2nn(C3CC3)cc2c1 [Example 316]
IC50: < 100 nM

CC(C)C[C@@H](C(=O)N1C[C@]2(C[C@H]1C#N)C(=O)Nc1ccccc12)N(C)C(=O)c1cc(OC2CC2)c2nc(C3CC3)sc2c1 [Example 317]
IC50: < 100 nM

CC(C)C[C@@H](C(=O)N1C[C@]2(C[C@H]1C#N)C(=O)Nc1ccccc12)N(C)C(=O)c1cc(F)c2nc(C3CC3)cn2c1 [Example 318]
IC50: < 100 nM

COc1cc(C(=O)N(C)[C@@H](CC(C)C)C(=O)N2C[C@]3(C[C@H]2C#N)C(=O)Nc2ccccc23)cc2cn(C3(C)CC3)nc12 [Example 319]
IC50: < 100 nM

COc1cc(C(=O)N(C)[C@@H](CC(C)C)C(=O)N2C[C@]3(C[C@H]2C#N)C(=O)Nc2ccccc23)cc2cn(C3CCC3)nc12 [Example 320]
IC50: < 100 nM

Cc1ccc2cc(C(=O)N(C)[C@@H](CC(C)C)C(=O)N3C[C@]4(C[C@H]3C#N)C(=O)Nc3ccccc34)cc(OC3CC3)c2n1 [Example 321]
IC50: < 100 nM

CC(C)C[C@@H](C(=O)N1C[C@]2(C[C@H]1C#N)C(=O)Nc1ccccc12)N(C)C(=O)c1cc(OC(F)(F)F)c2ncccc2c1 [Example 322]
IC50: < 100 nM

Cc1cc2cc(C(=O)N(C)[C@@H](CC(C)C)C(=O)N3C[C@]4(C[C@H]3C#N)C(=O)Nc3ccccc34)cc(OC3CC3)c2nc1C [Example 323]
IC50: < 100 nM

CC(C)C[C@@H](C(=O)N1C[C@]2(C[C@H]1C#N)C(=O)Nc1ccccc12)N(C)C(=O)c1cc(OC2CC2)c2ncc(C3CC3)cc2c1 [Example 324]
IC50: 100 to 1000 nM

CC(C)C[C@@H](C(=O)N1C[C@]2(C[C@H]1C#N)C(=O)Nc1ccccc12)N(C)C(=O)c1cc2cccc(F)c2[nH]1 [Example 325]
IC50: < 100 nM

CC(C)C[C@@H](C(=O)N1C[C@]2(C[C@H]1C#N)C(=O)Nc1ccccc12)N(C)C(=O)c1cc2cc(C(F)(F)F)ccc2[nH]1 [Example 326]
IC50: < 100 nM

CC(C)C[C@@H](C(=O)N1C[C@]2(C[C@H]1C#N)C(=O)Nc1ccccc12)N(C)C(=O)c1cc2cc(C#N)ccc2[nH]1 [Example 327]
IC50: < 100 nM

CC(C)C[C@@H](C(=O)N1C[C@]2(C[C@H]1C#N)C(=O)Nc1ccccc12)N(C)C(=O)c1cc2c(Cl)c(Cl)ccc2[nH]1 [Example 328]
IC50: < 100 nM
